# Publication PMC6385889 (Chemical biology & drug design, 2011)
# Where “and” joins values, the source holds several entries; their conditions need not be identical. Identical values can stand only once. Like-named read-outs stand apart in the source and are kept apart here.
# How the values were obtained:
# HOS cells = test: Cellular cytotoxicity; type: cell-based, human; details: HOS cells
# [1] = tested on: HIV-1 containing wild-type (WT) integrase; test: Antiviral assay, cells infected with HIV-1 vector containing WT integrase; type: cell-based
# [2] = tested on: HIV-1 containing G140S/Q148H integrase; type: cell-based; details: cells infected with mutant vector
# [3] = tested on: HIV-1 containing Y143R integrase; type: cell-based; details: cells infected with mutant vector
# [4] = tested on: HIV-1 containing N155H integrase; type: cell-based; details: cells infected with mutant vector
# HIV-1 integrase Y143R = test: In vitro ST assay, Y143R mutant IN; type: biochemical; details: mutant enzyme vs WT enzyme; pre-cleaved DNA, Mg2+
# HIV-1 integrase N155H = test: In vitro ST assay, N155H mutant IN; type: biochemical
# Cellular cytotoxicity = type: cell-based, human; details: human, HOS osteosarcoma cells
# [5] = tested on: HIV-1 integrase G140S/Q148H; details: mutant enzyme vs WT enzyme; pre-cleaved DNA, Mg2+
# [6] = Human immunodeficiency virus 1, read-out: EC50 (WT)
structure (smiles),measurement,setting,value
"CC(C)n1c(C(=O)N(C)C)c2c(c(O)c1=O)C(=O)N(Cc1ccc(F)c(Cl)c1)CC2 [compound 2, MK-0536, reference compound]",CC50,HOS cells; 48 hrs,> 100 µM
same,EC50,"[1]; read-out: EC50 (WT), HIV-1 vector with WT integrase",17 ± 4 nM
same,"Fold-loss of antiviral potency relative to virus containing WT enzyme, G140S/Q148H",[2],5x fold
same,"Fold-loss of antiviral potency relative to virus containing WT enzyme, G140S/Q148H",[2]; listed as MK-0536,5 fold
same,"Fold-loss of antiviral potency relative to virus containing WT enzyme, Y143R",[3],0.4x fold
same,"Fold-loss of antiviral potency relative to virus containing WT enzyme, N155H",[4],1x fold
"COC(=O)CCc1c2c(c(O)c(=O)n1C(C)C)C(=O)N(Cc1ccc(F)c(Cl)c1)C2=O [5e, Methyl 3-(2-(3-chloro-4-fluorobenzyl)-7-hydroxy-5-isopropyl-1,3,6-trioxo-2,3,5,6-tetrahydro-1H-pyrrolo[3,4-c]pyridin-4-yl)propanoate]","Fold-loss of potency relative to WT, Y143R (ST, in vitro)",HIV-1 integrase Y143R,2 fold and 2x fold
same,Fold less sensitive than raltegravir to N155H mutation (in vitro),"HIV-1 integrase N155H; comparison of fold-losses, enzyme assay",approximately 2 fold
same,"Fold-loss of potency relative to WT, N155H (ST, in vitro)","HIV-1 integrase N155H; mutant enzyme vs WT enzyme, pre-cleaved DNA, Mg2+",4 fold and 4x fold
same,CC50 at 48 h,Cellular cytotoxicity,392 ± 66 µM
same,Cytotoxicity fold lower than catechol-containing analogue 3,HOS cells; ratio of CC50 values,approximately 70 fold
same,EC50,[1]; [6],9200 ± 1900 nM
same,"Fold-loss of antiviral potency relative to virus containing WT enzyme, G140S/Q148H",[2],2 fold and 2x fold
same,"Fold-loss of antiviral potency relative to virus containing WT enzyme, Y143R",[3],2 fold and 2x fold
same,"Fold-loss of antiviral potency relative to virus containing WT enzyme, N155H",[4],3 fold and 3x fold
same,"Fold-loss of potency relative to WT, G140S/Q148H (ST, in vitro)",[5],12 fold and 12x fold
"Cc1nnc(C(=O)NC(C)(C)c2nc(C(=O)NCc3ccc(F)cc3)c(O)c(=O)n2C)o1 [compound 1, raltegravir, reference compound]",CC50 at 48 h,Cellular cytotoxicity,> 100 µM
same,EC50,[1]; [6],4 ± 2 nM
